A short description of this experiment: inhibitors of Bluetongue virus cytopathic effect, confirmation, arbovirus, BSR cells (AID 1250). As to conditions: BSR cells, Bluetongue virus CPE, ATP luminescence, 72 h; at 20 µM (top of the series).

SMILES strings stand for the structures. Calls of active or inactive are those of the source.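 How the source made its calls: active means inhibition of at least 30% at one or more tested concentrations; inactive means inhibition below 30% at every dose.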

As for `O=C(N/N=C/c1c(O)n(CCc2ccccc2)c(=O)[nH]c1=O)c1ccncc1`, the CPE inhibition is 7.83% (inactive). In the case of `CCCCN(CCCC)CC(O)COc1ccccc1Br` (stereo unspecified), the CPE inhibition was 15.3% (inactive). With `CCOc1ccc(S(=O)(=O)N2CCN(c3ccccc3OC)CC2)c2cccnc12`, the CPE inhibition is 17.1% (inactive).

Turning to `COCCn1c(SC(C)C(=O)Nc2ncc(Cl)cc2Cl)nc2ccccc21` (stereo unspecified), the CPE inhibition is 21% (inactive). The figure for `O=C1CC(=O)N(Cc2ccco2)C(=O)N1` is 2.11% (inactive); for `COc1ccc2nc(N3C(=O)CC(Cc4cc(C)cc(C)c4)C3=O)sc2c1` (stereo unspecified) it is 13.6% (inactive); for `CCc1cc2c(=O)c(-c3cscn3)coc2c(CN(C)C)c1O` it is 5.92% (inactive).

For `COc1cc2c(C(=O)O)c(C)n(CC(C)C)c2c2ccccc12`, the CPE inhibition was 28.1% (inactive). As for `O=c1[nH]c(SCc2ccccc2)nnc1-c1ccccc1`, the CPE inhibition was 3.2% (inactive). As for `COc1ccc(CCNCC(O)c2ccccc2)cc1` (stereo unspecified), the CPE inhibition is 13.7% (inactive). As to `C/C(=N\NC(=O)COc1ccc([N+](=O)[O-])cc1)C(C)(C)C`, the CPE inhibition is 4.19% (inactive). The figure for `Cc1cccc2c1nc(-c1ccccc1)n1nnnc21` is -3.74% (inactive); for `Brc1ccccc1-c1nnc(SCc2nc3ccccc3s2)o1` it is 0.37% (inactive).

As for `CSc1nsc2nc(=O)c(/C=C3\C(C)=Nc4ccccc43)c(N)n12`, the CPE inhibition was 23% (inactive).

On to `Cc1ccc(N2C(=O)C3CC(c4ccccc4)=C4C5C=CC(C6C(=O)N(c7ccc(C)cc7)C(=O)C56)C4C3C2=O)cc1` (stereo unspecified), for which the CPE inhibition is 11.8% (inactive). Regarding `COc1cc2c(cc1NC(=O)CC1SC(N3CCCC3)=NC1=O)oc1ccccc12` (stereo unspecified), the CPE inhibition is 13.7% (inactive). For the compound `C#CCSc1ncc(S(=O)(=O)c2ccccc2)c(=O)[nH]1`, the CPE inhibition was 1.65% (inactive). With `CCOC(=O)C(NC(=O)c1cccc(Cl)c1)(OCc1ccc(F)cc1)C(F)(F)F` (stereo unspecified), the CPE inhibition is -3.2% (inactive). For `O=C(CCCN1C(=O)/C(=C/c2cccs2)SC1=S)Nc1cccc(C(=O)O)c1`, the CPE inhibition is 1.7% (inactive). Take `Fc1ccc2nc(Nc3nc4c(F)cccc4s3)sc2c1`: the CPE inhibition was 20.9% (inactive).

Turning to `O=S(=O)(c1ccc(Oc2ccc(Cl)cc2)c(S(=O)(=O)N2CCCCC2)c1)N1CCCCC1`, the CPE inhibition was 22.6% (inactive). Regarding `O=C(COc1ccc(Cl)cc1)Nc1ncc([N+](=O)[O-])s1`, the CPE inhibition was 25.3% (inactive). For the compound `COc1ccc(CN(C(=O)CSc2nnc(-c3ccc(F)cc3)o2)c2ccc(F)cc2)cc1`, the CPE inhibition is 21.3% (inactive). Regarding `Cc1ccc(C(=O)Nc2ccccc2SCC2CSc3nc4ccccc4c(=O)n32)cc1` (stereo unspecified), the CPE inhibition is 14.6% (inactive). In the case of `O=C(O)CCn1cc(/C=C/C(=O)c2ccc(Cl)cc2)c(-c2ccc(Br)cc2)n1`, the CPE inhibition was 13.8% (inactive). For the compound `COC(=O)C1=C(C)N(Cc2ccco2)C(=O)N[C@@H]1c1cccc(C(F)(F)F)c1`, the CPE inhibition is 21.6% (inactive). The figure for `CC1=NN(c2nc(-c3ccc(Cl)cc3)cs2)C(=O)C1` is 8.37% (inactive); for `O=C(Nc1nnc(SCc2ccccc2Cl)s1)C1COc2ccccc2O1` (stereo unspecified) it is 16.7% (inactive); for `CCc1nnc(NS(=O)(=O)c2ccc(NC(=O)COc3ccc4ccccc4c3)cc2)s1` it is 25.7% (inactive). For the compound `COc1ccc(-c2nnc(-c3ccc(Br)o3)o2)cc1OC`, the CPE inhibition is 14.5% (inactive). In the case of `CCOC(=O)c1sc(NC(=S)NC(=O)c2cccc(Cl)c2)c(C(=O)OCC)c1C`, the CPE inhibition is 1.04% (inactive). `Nc1[nH]nc2nc(NCc3ccccc3)c3c(c12)CCN(Cc1ccccc1)C3`: the CPE inhibition was 10.8% (inactive). On to `O=c1/c(=C/c2ccc(O)cc2)sc2n1CCCN=2`, for which the CPE inhibition was 1.41% (inactive). As to `O=[N+]([O-])c1cccc(/C=N\N=C2c3ccccc3-c3ccccc32)c1O`, the CPE inhibition was 22.2% (inactive). Turning to `CC(C)S(=O)(=O)C1=NSC2=NC(=O)/C(=C\c3ccc(-c4cccc(C(=O)O)c4)o3)C(=N)N21`, the CPE inhibition was 24.2% (inactive).

Regarding `COc1ccc(C(=O)NN/C(C)=C/C(=O)C(F)(F)C(F)(F)C(F)(F)F)cc1`, the CPE inhibition was -14.6% (inactive). `C=CCOc1ccc(Br)cc1/C=C1/SC(=Nc2ccc(C(=O)O)cc2)NC1=O`: the CPE inhibition was 10.2% (inactive). On to `CCN(Cc1ccncc1)Cc1c(O)ccc2cc(Br)ccc12`, for which the CPE inhibition was 8.02% (inactive). To `CN(C)C(=O)COC(=O)c1ccccc1Nc1ccc(SC(F)F)cc1` belongs 23% (inactive). To `CC(C)(C)c1ccc(C(=O)NC(=S)NCC2CCCO2)cc1` (stereo unspecified) belongs 3.96% (inactive). The figure for `COc1ccccc1-n1c(C)cc(/C=C2/C(=N)N3C(=NC2=O)SN=C3S(C)(=O)=O)c1C` is 18.1% (inactive). Regarding `CCOC(=O)CC1=NS(=O)(=O)c2ccccc2N1`, the CPE inhibition was 2.01% (inactive). The figure for `Cc1[nH]nc2c1-c1nc3ccccc3nc1C(C)(C)C2` is 15.7% (inactive); for `COc1ccc2cc(-c3cc(C(=O)O)c4ccccc4n3)ccc2c1` it is 12.7% (inactive); for `COC(=O)Nc1ccc(S(=O)(=O)N2CCC(C(=O)N(C)C3CCCCC3)CC2)cc1` it is 4.71% (inactive). The figure for `COC(=O)c1ccccc1N/C=C/C(=O)c1ccc(Br)cc1` is 28.6% (inactive). Regarding `O=C(CSCc1ccccc1)Nc1cccc(C(=O)Nc2ccccc2C(=O)O)c1`, the CPE inhibition was 9.16% (inactive). To `Cc1ccc(S(=O)(=O)N2CCN(Cc3cc(C(C)C)ccc3O)CC2)cc1` belongs 15.9% (inactive); to `Cc1ccc2nc(-c3ccc(Br)o3)oc(=O)c2c1`, 21.3% (inactive); to `CCOc1ccc2nc(NC(=O)C3=NN(c4ccccc4)C(=O)CC3)sc2c1`, 25% (inactive). `CC(=O)NCC1=C(NC(C)=O)C2CC1C(C)(C)C2C` (stereo unspecified): the CPE inhibition was 2.41% (inactive).

On to `O=C(NC(=S)NCCC1=CCCCC1)c1ccccc1Br`, for which the CPE inhibition is 28.5% (inactive).

As for `CCN=c1scc(C)n1/N=C/c1cc(Br)c(O)c(Br)c1`, the CPE inhibition is -2.38% (inactive).

On to `CC1CCN(C2=NC(=O)/C(=C/c3cn[nH]c3-c3ccccc3)S2)CC1`, for which the CPE inhibition is -2.7% (inactive). As for `COC1=C/C(=C/c2c(N)n3nc(-c4ccc(C)cc4)sc3nc2=O)C=CC1=O`, the CPE inhibition is 29.9% (inactive). For the compound `CCn1nc(C)c(NC(=O)Nc2cccc(Cl)c2Cl)c1C`, the CPE inhibition was 2.62% (inactive).

Regarding `O=C(O)/C(=C\c1ccc(-c2ccc(F)cc2)o1)c1ccccc1`, the CPE inhibition was 24.5% (inactive). For `CC(C)C(=O)Nc1nnc(SCC(=O)N2c3ccccc3CC2C)s1` (stereo unspecified), the CPE inhibition is 11.5% (inactive). Turning to `Cc1ccc(CSc2nnc(NC(=O)C3COc4ccccc4O3)s2)cc1` (stereo unspecified), the CPE inhibition was 26.6% (inactive).

For the compound `Cc1ccc(CSCc2nc3ccccc3[nH]2)cc1`, the CPE inhibition was 12.9% (inactive). For `Cc1cccc2c1-c1sc(C(=O)Nc3nccs3)cc1CO2`, the CPE inhibition was 27% (inactive).

For the origin of these results see PubChem BioAssay AID1250 (SRMLSC, 2008).
